From US8088819B2, “Derivatives of substituted 3-phenyl-1-(phenylthienyl)propan-1-ones and of 3-phenyl-1-(phenylfuranyl) propan-1-ones, preparation and use” (priority 2006, dated 2012)

Tests used:
dyslipidemic E2/E2 mice = experiment: Plasma lipid assays and lipoprotein distribution in the E2/E2 mouse; format: in vivo
Method: The antilipemic and HDL-cholesterol synthesis stimulating properties of the compounds according to the invention were evaluated in vivo by assay of the plasma lipids, analysis of the distribution of cholesterol and of triglycerides in the various plasma lipoprotein fractions and measurement of the expression of the target genes of the PPARs in the liver and skeletal muscle after treatment of dyslipidemic E2/E2 mice with compound 2.
The murine model used is the ApoE2/E2 type mouse, a transgenic mouse for the E2 isoform of human apolipoprotein E (Sullivan P M et al., 1998). In humans, this apolipoprotein, a constituent of the low and very low density lipoproteins (LDL-VLDL), occurs in three isoforms E2, E3 and E4. The E2 form has a mutation on an amino acid in position 158, which greatly weakens the affinity of this protein for the LDL receptor. The clearance of the VLDLs is accordingly almost zero. There is then accumulation of low-density lipoproteins and mixed hyperlipidemia called type III (high cholesterol and triglycerides).
Apo E2/E2 transgenic mice were kept under a cycle of light and darkness of 12/12 hours at a constant temperature of 20±3° C. After acclimation for one week, the mice were weighed and put into groups of 6 animals selected so that the distribution of their body weights and of their plasma lipid levels determined for the first time before the experiment are uniform. The test compounds were suspended in carboxymethylcellulose (Sigma C4888) and administered by intragastric force feeding, at a rate of once per day for 13 days at the chosen dose. The animals had free access to water and to food (standard diet). At the end of the experiment, the animals were anesthetized after fasting for 4 hours, a blood sample was taken using anticoagulant (EDTA), then the mice were weighed and euthanased. The plasma was separated by centrifugation at 3000 rev/min for 20 minutes, and the samples were stored at +4° C.
The various lipid fractions (VLDL, LDL, HDL) of the plasma were separated by gel filtration chromatography. The concentrations of cholesterol and of triglycerides were then measured in each fraction by enzyme assays (bioMérieux-Lyon-France) following the supplier's recommendations.
The plasma concentrations of total cholesterol were measured by enzyme assays (bioMérieux-Lyon-France) following the supplier's recommendations.
The low-density lipoproteins (VLDL and LDL) were precipitated with phosphotungstate. The precipitate was removed by centrifugation. The HDL-cholesterol present in the supernatant was quantified by enzyme assays (bioMérieux-Lyon-France) following the supplier's recommendations.

db/db mouse = experiment: Plasma triglycerides and insulinemia in the db/db mouse; format: in vivo; conditions: 50 mpk oral, 28 days
Method: The effect of the compounds according to the invention is evaluated in vivo in the db/db mouse by measuring the plasma triglycerides and insulinemia after 28 days of treatment with compound 2 by the oral route. These levels are compared with those obtained with control animals (not treated with the compound according to the invention). The measured difference provides evidence of the antilipemic effect and effect on insulin resistance of the compound according to the invention.
Female db/db mice were kept under a cycle of light and darkness of 12/12 hours at a constant temperature of 20±3° C. After acclimation for one week, the mice were weighed and put in groups of 8 animals selected so that the distribution of their body weight and of their plasma lipid levels, determined for the first time before the experiment, are uniform. The test compounds were suspended in carboxymethylcellulose (Sigma C4888) and administered by intragastric force feeding, at a rate of once per day for 28 days at the chosen dose. The animals had free access to water and to food (standard diet). The food intake and the weight gain are recorded throughout the experiment. […]
The plasma concentrations of triglycerides were measured by enzyme assays (bioMérieux-Lyon-France) following the supplier's recommendations. […]

hPPARalpha = target: T1, hPPARalpha (Homo sapiens, UniProt Q07869); experiment: PPAR activation: Gal4-hPPARα chimera luciferase transactivation in COS-7 cells, Method 2; format: cell-based; conditions: COS-7, 24 h
T1 construct: expressed in transfected cells; host or cells: COS-7 (monkey kidney fibroblasts)
T1 sequence (Q07869 239-466 limits assumed): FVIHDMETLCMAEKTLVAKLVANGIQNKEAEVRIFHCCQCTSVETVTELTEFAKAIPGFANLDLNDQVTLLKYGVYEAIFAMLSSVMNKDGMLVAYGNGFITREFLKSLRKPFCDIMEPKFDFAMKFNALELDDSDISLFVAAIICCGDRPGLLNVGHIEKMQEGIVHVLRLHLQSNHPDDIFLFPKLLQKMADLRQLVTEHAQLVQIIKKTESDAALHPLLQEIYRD
In short: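 COS-7 cells were transfected with Gal4-PPAR LBD chimera plus Gal4(RE)_TkpGL3 luciferase reporter (1/10) and seeded serum-free for 4 h. Compounds at 10^−5 to 100 μm were applied for 24 h at 37° C in 1% lipid-free synthetic serum. Luciferase was read after lysis, and EC50 derived.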

[1] = 50 mpk oral, 7 and 13 days, vs control animals

Compound | plasma HDL-cholesterol level (dyslipidemic E2/E2 mice; [1]) | plasma total cholesterol level (dyslipidemic E2/E2 mice; [1]) | level of triglycerides present in the VLDL (dyslipidemic E2/E2 mice; 50 mpk, 13 days) | plasma HDL-cholesterol level (distribution of cholesterol in plasma lipoprotein fractions) (dyslipidemic E2/E2 mice; 50 mpk, 13 days) | plasma levels of LDL and VLDL (distribution of cholesterol in plasma lipoprotein fractions) (dyslipidemic E2/E2 mice; 50 mpk, 13 days) | insulinemia (plasma levels of insulin) (db/db mouse) | plasma triglyceride level (db/db mouse) | EC50 (hPPARalpha; 1% Ultroser) | Emax (hPPARalpha; maximum percentage response relative to the reference phenofibric acid, read-out: hPPARalpha % max)
CC(C)(Oc1ccc(CCC(=O)c2ccc(-c3ccc(C(F)(F)F)cc3)s2)c(Cl)c1Cl)C(=O)O [Compound 2, 2-(2,3-dichloro-4-(3-oxo-3-(5-(4-(trifluoromethyl)phenyl)thien-2-yl)propyl)phenoxy)-2-methylpropanoic acid] | increased significantly | lowered significantly | lowered | increased | significant decrease | lowered significantly | lowered significantly |  | 
CC(C)(Oc1ccc(CCC(OCc2ccccc2)c2ccc(-c3ccc(C(F)(F)F)cc3)s2)c(Cl)c1Cl)C(=O)O (stereo not drawn) [Compound 7, 2-(4-(3-(benzyloxy)-3-(5-(4-(trifluoromethyl)phenyl)thien-2-yl)propyl)-2,3-dichlorophenoxy)-2-methylpropanoic acid] |  |  |  |  |  |  |  | 5.46 µM | 20%
